Test results published in patent US20230220047A1, “PEPTIDES FOR TREATMENT OF SEPSIS AND CANCER” (NORWEGIAN UNIVERSITY OF SCIENCE AND TECHNOLOGY (NTNU), priority 2020, published 2023).

Assays:
caspase-3 = assay: Western blot for cleaved caspase-3 in JJN-3 cells; type: cell-based, human; conditions: JJN-3, 10 μM, 24 or 48 h
Method: JJN-3 cells were cultured for 24 or 48 hours with a control peptide (penetratin) or P7-A4-Pen, both at 10 μM. Cells were then lysed and lysates analysed by Western blot for cleaved caspase-3. Presence of cleaved (i.e. activated) caspase-3 is an indicator of apoptotic pathway activation. Cleaved caspase 3 was detected at high levels in the cells treated with P7-A4-Pen for 24 or 48 hours, and only at much lower levels in the cells treated with the control peptide. β-tubulin was detected as a loading control.
To investigate the mechanism of cytotoxicity mediated by the anti-proliferative peptides of the invention, the effect of the peptide P7-A4-Pen on caspase-3 activation in JJN-3 multiple myeloma cells was investigated. Caspase-3 is a pro-apoptotic caspase which is activated by cleavage by upstream caspases 8, 9 and 10 in response to cell death stimuli. Activated, cleaved caspase-3 cleaves and activates caspases 6 and 7, which induce apoptosis. JJN-3 multiple myeloma cells were incubated with 10 μM P7-A4-Pen or Penetratin control for 24 or 48 hours, lysed and analysed by Western blot to investigate caspase-3 activation (by blotting cleaved caspase-3).

S. aureus particles = assay: Whole blood assay, S. aureus particle stimulation; type: cell-based, human; conditions: 20 μM, 4 h
Method: Whole blood samples from healthy donors were pre-treated with 20 μM peptides for 1 h then stimulated with TLR ligands for 4 h before plasma collection. Results are for at least 6 donors. The Wilcoxon matched-pairs signed rank test was used for statistical analysis between 2 groups in Prizm 8.2.1. In each graph, circles indicate whole blood pre-treated with water, squares indicate blood pre-treated with control peptide (average for treatment with Pen and C3-Pen), and triangles indicate pre-treatment with P7-Pen.
To evaluate the effect of peptides in an ex vivo system, a human whole blood model was used. Peripheral venous blood was drawn from 6 healthy donors into sterile polypropylene tubes (Thermo Scientific™ Nunc™ Biobanking and Cell Culture Cryogenic Tubes) containing the anti-coagulant Lepirudin (Refludan®; Celgene). Peptide solutions were made by diluting peptide stocks in DPBS (Dulbecco's Phosphate Buffered Saline with MgCl2 and CaCl2; Sigma-Aldrich) to obtain a final concentration of 140 μM. Peptide solution or DPBS was distributed in equal volume (50 μL) to 1.8 mL sterile polypropylene tubes (Thermo Scientific™Nunc™ Biobanking and Cell Culture Cryogenic Tubes). 250 μL whole blood was then added to the 1.8 mL tubes containing peptide solution or DPBS, and incubated at 37° C. under constant rotation for 1 h (concentration of peptides for pre-incubation: 23.3 μM). […]

primary human monocytes = assay: Confocal analysis of E. coli particle uptake by primary human monocytes; type: cell-based; conditions: 15 μM, level comparable with CytoD treated cells
Method: Cells were pre-incubated with Pen or P7-Pen peptides, followed by addition of Alexa Fluor 488-labeled bioparticles for the times indicated (15, 30 or 45 min). Fluorescent bacteria particles were counted by spot-detection in Bitplane Imaris imaging software and used to calculate the number of particles per cell. […] Pre-incubation with 3 μM cytochalasin D (CytoD, and inhibitor of actin polymerization) inhibited uptake of E. coli to a similar extent as P7-Pen.
THP-1 cells, THP-1^cherry cells or human PBMC were seeded in 24-well glass-bottom plates (MatTek Corporation), 125,000 cells/well. The THP-1 cells were differentiated into macrophages with 60 ng/ml PMA for 72 h and thereafter rested for 48 h, whereas the PBMC were used the day after isolation. The P7-penatratin peptide or control peptide was added to the cells 30 min before stimulation at 15 μM concentration. If used, 3 μM cytochalasin D (CytoD) was added simultaneously. […] A spot detection mode in the Bitplan Imaris software was used to define individual phagosomes and cells were counted manually. […] Fluorescence voxel intensity of TRAM^cherry at the phagosome is also presented. Statistical significance was calculated in GraphPad Prism by One-way ANOVA Kruskal-Wallis multiple comparison test. […]

TLR8 = assay: Primary human macrophages stimulated with CL075: cytokine mRNA, Western blot, IRAK precipitations; type: cell-based; conditions: TLR8-stimulated cells, 15 μM, CL075 3 μg/ml
Method: Primary human macrophages (PBMC derived, differentiated in media with 10% human serum and M-CSF 20 ng/ml, 7 days) were stimulated with K12 LPS (100 ng/ml), FSL-1 (100 ng/ml) or CL075 (3 μg/ml). […] (B) qPCR for mRNA expression of IFNβ, IL-6, TNF and IL-1β, average for three biological replicates, error bars ±SD.
Primary human macrophages (7 days) were pre-treated with Pen or P7-Pen (15 μM) for 30 min before addition of LPS (100 ng/ml), FSL-1 (100 ng/ml) or CL075 (3 μg/ml). A: Protein expression in lysates for input control. B,C: Precipitations were performed using sheep anti-IRAK4 (B) or anti-IRAK1 (C) polyclonal antibodies covalently bound to magnetic beads.

| Substance | caspase-3 cleavage (caspase-3) | S. aureus-mediated IFNβ secretion (S. aureus particles) | S. aureus-mediated TNF, IL-6 and IL-1β pro-inflammatory cytokine secretion (S. aureus particles) | uptake of E. coli particles (primary human monocytes) | IRAK1 and IRAK4 recruitment to MyD88 at an early time point (TLR8) | late recruitment of IRAKs or phosphorylation of p38 MAPKs (TLR8) |
| --- | --- | --- | --- | --- | --- | --- |
| Ac-ITVAASVTLTGRQIKIWFQNRRMKWKK-NH2 [Peptide P7-A4-Pen] | strongly stimulates |  |  |  |  |  |
| Ac-ITVYASVTLTGRQIKIWFQNRRMKWKK-NH2 [Peptide P7-Pen] |  | significantly downregulated | significantly decreased | inhibited | inhibitory effect | no effect |
